# According to US20130109682A1, “CYCLIC ETHER COMPOUNDS USEFUL AS KINASE INHIBITORS” (NOVARTIS AG, priority 2010, published 2013):
# Like-named read-outs stand apart in the source and are kept apart here.
# Assays:
# cABLT315 kinase = cABLT315 kinase (Homo sapiens, UniProt P00519); assay: cABLT315 kinase Caliper assay; assay type: biochemical
# Description: PKCα and cABLT315 Kinase Caliper Assays
# Assays were performed in 384 well microtiter plates. Each assay plate contained 8-point serial dilutions for test compounds, as well as two 16-point serial dilutions of staurosporine as reference compound, plus 16 high- and 16 low controls. Liquid handling and incubation steps were done on a Thermo CatX workstation equipped with a Innovadyne Nanodrop Express. Between pipetting steps, tips were cleaned in wash cycles using wash buffer. Plates with terminated kinase reactions were transferred to the Caliper LC3000 workstations for reading. Phosphorylated and unphosphorylated peptides were separated using the Caliper microfluidic mobilitishift technology and Kinase activities were calculated from the amounts of formed phospho-peptide.
# Kinase reactions were prepared in 384 low volume plates by the following sequence:
# 1. 0.05 μA Compound (start with 1.8 mM in 90% DMSO/10% H2O)
# 2. +4.5 μl 2× peptide/ATP solution
# 3. +4.5 μl 2× enzyme solution
# 4. Incubate for 60 min at 30° C.
# 4. +16 μl stop/run buffer
# Independent of the kinase, all reactions were done performed in 50 mM HEPES, pH 7.5, 1 mM DTT, 0.02% Tween20, 0.02% BSA, and 0.6% DMSO. For cABLT315 assay specific details were as follows: [cABLT315 kinase]=2.4 nM, [ATP]=10 uM, [peptide]=2 uM, [Mg]=10 mM. For PKCα, assay specific details were as follows: [kinase]=0.012 nM, [ATP]=17 uM, [peptide]=1 uM, [Mg]=7 mM, [Ca]=0.2 mM.
# hERG = molecular target: T1, hERG (Homo sapiens, UniProt Q12809); assay: hERG binding assay ([3H] dofetilide displacement); details: read-out: HERGdof IC50
# T1 construct: host or cells: crude membrane suspension
# Description: Compounds of the invention were pipetted into each well of pre-wet 96-well Millipore GF/C filter plates (#MSFCN6B50): 119 μl assay buffer, 1 μl test compound in 100% DMSO (or 100% DMSO only for total binding), 40 μl [3H] dofetilide (12.5 nM, final concentration 2.5 nM; Novartis radioisotope laboratory, East Hanover, N.J., USA, specific activity 15-45 Ci/mmol); 40 μl crude membrane suspension (ca. 15 μg protein). The final concentration of DMSO during the incubation was 0.5%. Incubations were performed at room temperature for 90 min. Non-specific binding (NSB) was defined as the binding remaining in the presence of 25 μM terfenadine (Sigma T9652). The incubations were terminated by rapid filtration on a Millipore filtration manifold, followed by three washes of 200 μA ice-cold assay buffer. The plates were left to dry overnight before adding 40 μA scintillant (MicroScint-20). The plates were then sealed (Sealing Tape SI, Nunc 236366) and read in a Wallac MicroBeta Trilux beta-counter for 1.5 min per well. Compounds were tested as 9-concentration response curves in duplicate, ranging from 30 μM to 3 nM in 1:3 dilution steps. Dilution curves were prepared in 100% DMSO. The reference compound (terfenadine) was tested as an eight-concentration response curve, ranging from 10 μM to 0.6 nM in 1:4 dilution steps.
# PIM1 = PIM1 (Homo sapiens, UniProt P11309); assay: KinaseGlo Pim1 ATP depletion assay; assay type: biochemical
# Method in brief: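 2.5 nM PIM1 preincubated 15 min with compound and 40 μM BAD peptide in 50 mM HEPES pH 7.5, 5 mM MgCl2, 1 mM DTT, 0.05% BSA, 2.5% DMSO. The reaction was started with 20 μM ATP (final) and run to about 50% ATP depletion. Remaining ATP read by KinaseGlo Plus luminescence to give IC50.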
# FGFR3 kinase = FGFR3 kinase (Homo sapiens, UniProt P22607); assay: FGFR3 kinase inhibition assay (LanthaScreen TR-FRET); assay type: biochemical
# Description: FGFR3 Kinase Inhibition Assay
# LanthaScreen™ is the detection of Time-Resolved Fluorescence Resonance Energy Transfer (TR-FRET) using lanthanide chelates to measure interactions between various binding partners. The application of TR-FRET to assay kinase activity was first described by Mathis (1995). A TR-FRET assay was used to measure FGFR3 kinase inhibitory activity. The assay panel was run on a Biomek FX liquid handling workstations. To the assay plates containing […] compound or control solutions, 4.5 μL of buffer A (50 mM TRIS-HCl pH 7.4, 2 mM DTT, 0.02% Tween 20, 0.02 mM Na3VO4, H2O nanpure) including a generic concentration of ATP (2 μM f.c.) was added per well, followed by 4.5 μL of buffer B (4 uM ATP in Buffer A) including a generic concentration of polyEAY (50 nM f.c.), FGFR3 kinase, and divalent cations. Final concentration of kinase and cations were: [FGFR3 kinase]=0.20 nM, [Mg]=3 mM, [Mn]=3 mM. After 1 hour of incubation the kinase reactions were stopped by the addition of 4.5 μL of stop solution D (50 mM EDTA, 20 mM TRIS-HCl pH 7.4, 0.04% NP-40) immediately followed by 4.5 μL of buffer A (50 mM TRIS-HCl pH 7.4, 2 mM DTT, 0.02% Tween 20, 0.02 mM Na3VO4, H2O nanpure) including the Tb-labeled P-20 antibody to give a total detection volume of 18 μL. After an incubation time of 45 min in the dark, the plates were transferred into the Pherastar fluorescence reader for counting. The effect of compound on the enzymatic activity was obtained from the linear progress curves and determined from one reading (end point measurement).
# PIM1, sequence (P11309 whole entry): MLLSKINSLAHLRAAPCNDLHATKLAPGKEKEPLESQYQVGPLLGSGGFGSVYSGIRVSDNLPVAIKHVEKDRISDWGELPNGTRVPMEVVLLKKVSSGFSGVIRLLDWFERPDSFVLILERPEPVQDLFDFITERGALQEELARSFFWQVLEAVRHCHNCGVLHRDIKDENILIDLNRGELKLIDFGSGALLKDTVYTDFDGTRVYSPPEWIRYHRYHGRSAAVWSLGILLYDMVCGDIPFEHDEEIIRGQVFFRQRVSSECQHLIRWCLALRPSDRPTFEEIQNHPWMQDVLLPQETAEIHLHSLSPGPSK
# FGFR3 kinase, sequence (P22607 23-806): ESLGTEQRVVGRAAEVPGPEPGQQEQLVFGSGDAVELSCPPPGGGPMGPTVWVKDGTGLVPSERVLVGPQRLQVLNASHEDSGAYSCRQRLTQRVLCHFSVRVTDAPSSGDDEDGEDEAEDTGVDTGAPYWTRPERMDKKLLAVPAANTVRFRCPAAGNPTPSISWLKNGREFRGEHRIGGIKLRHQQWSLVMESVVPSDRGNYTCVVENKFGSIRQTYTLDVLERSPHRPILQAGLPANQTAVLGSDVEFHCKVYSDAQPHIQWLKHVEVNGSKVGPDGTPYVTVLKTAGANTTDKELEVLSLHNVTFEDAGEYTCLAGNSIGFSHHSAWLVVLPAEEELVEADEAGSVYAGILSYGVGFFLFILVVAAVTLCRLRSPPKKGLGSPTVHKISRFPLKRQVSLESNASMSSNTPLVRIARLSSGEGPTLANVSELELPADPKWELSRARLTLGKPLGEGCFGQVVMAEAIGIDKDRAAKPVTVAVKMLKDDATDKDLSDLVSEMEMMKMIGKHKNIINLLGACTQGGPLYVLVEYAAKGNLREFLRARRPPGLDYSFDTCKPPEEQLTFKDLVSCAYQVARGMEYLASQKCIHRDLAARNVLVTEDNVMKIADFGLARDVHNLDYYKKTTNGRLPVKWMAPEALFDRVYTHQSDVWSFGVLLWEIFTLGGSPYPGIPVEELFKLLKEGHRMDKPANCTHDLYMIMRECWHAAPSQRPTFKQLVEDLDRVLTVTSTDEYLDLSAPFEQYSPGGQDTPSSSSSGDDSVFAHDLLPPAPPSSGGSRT
# T1 sequence (Q12809 whole entry): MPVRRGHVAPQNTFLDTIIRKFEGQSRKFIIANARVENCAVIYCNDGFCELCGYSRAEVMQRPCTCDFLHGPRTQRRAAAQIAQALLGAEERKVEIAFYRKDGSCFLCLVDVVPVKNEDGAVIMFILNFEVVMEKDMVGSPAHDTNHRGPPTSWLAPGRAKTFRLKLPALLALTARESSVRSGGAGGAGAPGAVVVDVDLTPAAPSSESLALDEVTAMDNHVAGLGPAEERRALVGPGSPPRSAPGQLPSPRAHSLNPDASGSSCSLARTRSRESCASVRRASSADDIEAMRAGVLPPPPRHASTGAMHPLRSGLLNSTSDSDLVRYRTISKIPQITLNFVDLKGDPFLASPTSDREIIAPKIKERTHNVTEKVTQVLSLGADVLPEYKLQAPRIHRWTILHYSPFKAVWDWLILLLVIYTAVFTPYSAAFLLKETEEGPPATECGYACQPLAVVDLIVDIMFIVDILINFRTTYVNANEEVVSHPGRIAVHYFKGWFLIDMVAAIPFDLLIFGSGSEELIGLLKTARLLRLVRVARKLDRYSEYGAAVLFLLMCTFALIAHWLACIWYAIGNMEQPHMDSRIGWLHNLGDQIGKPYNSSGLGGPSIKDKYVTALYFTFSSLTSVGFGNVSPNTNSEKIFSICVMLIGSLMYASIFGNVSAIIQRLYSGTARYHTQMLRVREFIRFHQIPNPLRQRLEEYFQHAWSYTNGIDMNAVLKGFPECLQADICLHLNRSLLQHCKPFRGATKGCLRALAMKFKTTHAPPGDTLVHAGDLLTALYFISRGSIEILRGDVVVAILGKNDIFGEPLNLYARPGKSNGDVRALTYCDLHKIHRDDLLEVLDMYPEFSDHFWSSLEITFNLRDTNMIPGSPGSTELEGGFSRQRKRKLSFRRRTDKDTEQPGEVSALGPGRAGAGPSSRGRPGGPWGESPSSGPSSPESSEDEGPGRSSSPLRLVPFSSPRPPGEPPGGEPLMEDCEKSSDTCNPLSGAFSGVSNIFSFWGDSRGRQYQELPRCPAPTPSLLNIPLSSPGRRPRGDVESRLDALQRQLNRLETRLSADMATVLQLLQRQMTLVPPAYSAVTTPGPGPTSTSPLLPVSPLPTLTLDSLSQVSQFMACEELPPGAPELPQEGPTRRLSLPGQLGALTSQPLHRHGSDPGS
SMILES,IC50 (cABLT315 kinase) [nM],IC50 (hERG; dofetilide displacement) [µM],IC50 (PIM1) [nM],IC50 (cABLT315 kinase; Caliper assay) [nM],"IC50 (hERG; hERG binding, dofetilide) [µM]",IC50 (FGFR3 kinase) [µM]
"C=C1[C@@H](O)C[C@@H](c2ccncc2NC(=O)c2nc(-c3ccccc3)cnc2N)OC12CC2 [Example 5, 3-amino-N-(4-((5S,7S)-7-hydroxy-8-methylene-4-oxaspiro[2.5]octan-5-yl)pyridin-3-yl)-6-phenylpyrazine-2-carboxamide]",70,> 30,25.9,,,
"C[C@@H]1O[C@H](c2ccncc2NC(=O)c2nc(-c3ccccc3)cnc2N)[C@@H](F)[C@H](O)[C@@]1(C)O [Example 63, 3-amino-N-(4-((2R,3S,4R,5R,6S)-3-fluoro-4,5-dihydroxy-5,6-dimethyltetrahydro-2H-pyran-2-yl)pyridin-3-yl)-6-phenylpyrazine-2-carboxamide]",650,> 30,6,,,
"N[C@@H]1C[C@H](c2ccncc2NC(=O)c2ccc(F)c(-c3c(F)cccc3F)n2)O[C@@H]2CCC[C@H]12 [Example 224, N-(4-((2R,4R,4aR,7aR)-4-aminooctahydrocyclopenta[b]pyran-2-yl)pyridin-3-yl)-6-(2,6-difluorophenyl)-5-fluoropicolinamide]",,,,> 10000,2,> 10
"C[C@H]1O[C@@H](c2ccncc2NC(=O)c2ccc(F)c(-c3c(F)cccc3F)n2)C[C@@H](N)[C@]1(C)O [Example 219, N-(4-((2R,4R,5S,6R)-4-amino-5-hydroxy-5,6-dimethyltetrahydro-2H-pyran-2-yl)pyridin-3-yl)-6-(2,6-difluorophenyl)-5-fluoropicolinamide]",,,,> 10000,16,> 10
"COc1cc(F)c(-c2nc(C(=O)Nc3cnccc3[C@H]3C[C@@H](N)[C@](C)(O)[C@@H](C)O3)ccc2F)c(F)c1 [Example 242, N-(4-((2R,4R,5S,6R)-4-amino-5-hydroxy-5,6-dimethyltetrahydro-2H-pyran-2-yl)pyridin-3-yl)-6-(2,6-difluoro-4-methoxyphenyl)-5-fluoropicolinamide]",,,,> 10000,6,> 10
"CC1(C)C[C@H](N)C[C@@H](c2ccncc2NC(=O)c2nc(-c3ccccc3)cnc2N)O1 [Example 297, 3-amino-N-(4-((2S,4R)-4-amino-6,6-dimethyltetrahydro-2H-pyran-2-yl)pyridin-3-yl)-6-phenylpyrazine-2-carboxamide]",,,,860,,1.6
"Nc1ncc(-c2ccccc2)nc1C(=O)Nc1cnccc1[C@H]1C[C@@H](O)[C@H](O)[C@@H](CCl)O1 [Example 36, 3-amino-N-(4-((2R,4R,5S,6S)-6-(chloromethyl)-4,5-dihydroxytetrahydro-2H-pyran-2-yl)pyridin-3-yl)-6-phenylpyrazine-2-carboxamide]",30,> 30,1,,,
"N[C@H]1C[C@@H](c2ccncc2NC(=O)c2csc(-c3c(F)cccc3F)n2)O[C@H]2CCC[C@H]21 [Example 230, N-(4-((2S,4S,4aS,7aS)-4-aminooctahydrocyclopenta[b]pyran-2-yl)pyridin-3-yl)-2-(2,6-difluorophenyl)thiazole-4-carboxamide]",,,,> 10000,4,> 10
"Nc1cc(F)c(-c2c(F)cccc2F)nc1C(=O)Nc1cnccc1[C@H]1C[C@@H](N)[C@@]2(O)CCCC[C@H]2O1 [Example 238, 3-amino-N-(4-((2R,4R,4aS,8aR)-4-amino-4a-hydroxyoctahydro-2H-chromen-2-yl)pyridin-3-yl)-6-(2,6-difluorophenyl)-5-fluoropicolinamide]",,,,> 10000,4,> 10
"CC[C@]1(O)[C@H](N)C[C@H](c2ccncc2NC(=O)c2ccc(F)c(-c3c(F)cccc3F)n2)O[C@@H]1C [Example 232, N-(4-((2R,4R,5S,6R)-4-amino-5-ethyl-5-hydroxy-6-methyltetrahydro-2H-pyran-2-yl)pyridin-3-yl)-6-(2,6-difluorophenyl)-5-fluoropicolinamide]",,,,> 10000,5,> 10
"CC[C@H]1O[C@@H](c2ccncc2NC(=O)c2nc(-c3ccccc3)ncc2N)C[C@@H](O)[C@@H]1O [Example 39, 5-amino-N-(4-((2R,4R,5S,6R)-6-ethyl-4,5-dihydroxytetrahydro-2H-pyran-2-yl)pyridin-3-yl)-2-phenylpyrimidine-4-carboxamide]",8000,> 30,4,,,
"C[C@H]1O[C@@H](c2ccncc2NC(=O)c2nc(-c3ccccc3)cnc2N)C[C@@H](O)[C@]1(C)O [Example 84, 3-amino-N-(4-((2R,4R,5S,6R)-4,5-dihydroxy-5,6-dimethyltetrahydro-2H-pyran-2-yl)pyridin-3-yl)-6-phenylpyrazine-2-carboxamide]",86,> 30,1,,,
"CC1(C)C[C@@H](N)C[C@H](c2ccncc2NC(=O)c2nc(-c3ccccc3)cnc2N)O1 [Example 296, 3-amino-N-(4-((2R,4S)-4-amino-6,6-dimethyltetrahydro-2H-pyran-2-yl)pyridin-3-yl)-6-phenylpyrazine-2-carboxamide]",,,,110,,0.2
"C[C@H]1O[C@@H](c2ccncc2NC(=O)c2nc(-c3ccccc3)cnc2N)[C@H](F)[C@@H](O)[C@]1(C)O [Example 58, 3-amino-N-(4-((2S,3R,4S,5S,6R)-3-fluoro-4,5-dihydroxy-5,6-dimethyltetrahydro-2H-pyran-2-yl)pyridin-3-yl)-6-phenylpyrazine-2-carboxamide]",660,> 30,9,,,
"C[C@H]1O[C@@H](c2ccncc2NC(=O)c2nc(-c3ccccc3)ncc2N)C[C@@H](O)[C@]1(C)O [Example 32, 5-amino-N-(4-((2R,4R,5S,6R)-4,5-dihydroxy-5,6-dimethyltetrahydro-2H-pyran-2-yl)pyridin-3-yl)-2-phenylpyrimidine-4-carboxamide]",9000,> 30,5,,,
"C[C@@H]1O[C@H](c2ccncc2NC(=O)c2nc(-c3ccccc3)cnc2N)C[C@H](O)[C@@]1(C)O [Example 86, 3-amino-N-(4-((2S,4S,5R,6S)-4,5-dihydroxy-5,6-dimethyltetrahydro-2H-pyran-2-yl)pyridin-3-yl)-6-phenylpyrazine-2-carboxamide]",700,25,5,,,
